Key:
Format in all cases: in vivo
[1] = tested on: Seeds of Lettuce R. (Super-Jericho); test: Filter paper bioassay with lettuce seeds: germination and early plant development, Minimal Effective Concentration (MEC); settings: lettuce seeds on filter paper, 0 to 1 mmol/l, visually assessed after 6 days
Procedure, shortened: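 Visual scoring on day 6 of radicle and shoot growth gives the MEC, the lowest dose deviating from control (no germination or malformation). Seeds (lettuce Super-Jericho, 10 per plate) sat on filter paper with 0–1 mmol/l aqueous compound, 48 h dark then 4 days 6/18 dark/light, in at least two repeats.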

[2] = tested on: Romaine lettuce (Lactuca sativa L.) plants; test: Post-emergence herbicidal activity on potted Romaine lettuce plants (soil or foliar application); settings: lettuce at 2 to 3 leaves, two weeks after treatment
Procedure, shortened: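 Potted lettuce at the 2-3 leaf stage received compound in 0.1% aqueous Silwet, up to 0.0001%, applied to soil (1 ml/pot) or sprayed on foliage (0.1 ml/pot), 20 plants per concentration. Visual scoring and aboveground wet weight after two weeks; growth inhibition from median weights versus control.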

[3] = tested on: Amaranth; test: Herbicidal effect on potted weeds, plant development score; settings: soil application 1 mg/pot, scale 0 (dead plants) to 5 (healthy, as Control)
Description: (§1) Weed seeds were sawn in 0.3-liter pots, containing medium-heavy clay-loam soil from organic fields (55% clay, 23% silt, 20% sand, 2% organic matter, pH 7.1). The experiment was conducted in a completely randomized design. Each treatment was replicated 3 times (3 pots). Each compound was typically tested on crops (Corn, Wheat, Soy, Cotton, Oat, Chickpea) and weeds (Amaranth, Chenopodium, Lentils, Sinapis, Silybum).
(§2) The herbicides were applied at dose from 0 (control) to 5 mg/pot. The treatment was performed at the day of sawn (pre-emergence treatment). Then the pots were transferred to a mesh house 24 hours after herbicide application and were sprinkler irrigated to field capacity of the soil. Alternatively, the herbicides were applied on grown plants at stage 2-3 true leaves (post-emergence treatment).
(§3) The plants were grown in the mesh house during the entire experiment. Plant development at 6, 12, 19, 26 and 32 days after application (DAA) were evaluated on a scale of 0 to 5, in which 0 represents dead plants and 5 represents healthy plants similar or not different from Control. In the context of the invention, the herbicidal effect was expressed as a score calculated as an average of assessments of plants vigor, height, and leaf color.

[4] = tested on: Chenopodium; test: as above; settings: soil application 1 mg/pot, scale 0 (dead plants) to 5 (healthy, as Control)
Description: as §1, §2, §3

[5] = tested on: Lentils; test: as above; settings: soil application 1 mg/pot, scale 0 (dead plants) to 5 (healthy, as Control)
Description: as §1, §2, §3

[6] = tested on: Silybum; test: as above; settings: soil application 1 mg/pot, scale 0 (dead plants) to 5 (healthy, as Control)
Description: as §1, §2, §3

[7] = tested on: Sinapis; test: as above; settings: soil application 1 mg/pot, scale 0 (dead plants) to 5 (healthy, as Control)
Description: as §1, §2, §3

[8] = tested on: Seeds of Lettuce R. (Super-Jericho); test: Filter paper bioassay with lettuce seeds: germination, Fully Effective Concentration (FEC); settings: lowest concentration mostly preventing lettuce seed germination, assessed after 6 days
Description: Materials: Seeds of Lettuce R. (Super-Jericho, non-sterilized) were obtained from Ben Shahar Moshe Ltd., 99% purity. The test compounds listed in the Table 2 below were synthetized de novo or purchased from different vendors.
Filter Paper Bioassays with Lettuce seeds: The protocol is following Bertin et al. 2009 and Movellan et al. 2014 with specified modifications as described below.
Seeds were placed on Whatman no. 1 filter paper (Whatman, Middlesex, U.K.) in Petri dishes (10 seeds per plate) with 2.0 ml of aqueous solution of a test material in concentration ranged from 0 (control) to 1 mmol/l were placed in a tray tilted at 45°. The trays were kept in dark for 48 hours and then transferred to the growth chamber with 6/18 dark/light cycle for 4 days. Each experiment was performed at least with two repeats.
The development of plants' radicle and shoots were visually assessed 6 days after the beginning of the test to determine Fully Effective Concentration (FEC) of a test material. In the context of the invention, FED is defined as the lowest concentration level of a test material that mostly preventing seeds germination.

[9] = tested on: Romaine lettuce (Lactuca sativa L.) plants; test: Comparison of NAA and DNAA: growth inhibition of potted Romaine lettuce plants; settings: two weeks after treatment
Description: The tests were performed on Romaine lettuce (Lactuca sativa L.) plants at the stage 2 to 3 leaves. The plants were grown in mini-pots packed with soil, dimensions 2×2×5 cm, one plant per mini-pot. Test compounds were dissolved in 0.1% aqueous solution water solution of Silwet adjuvant. The test material where applied in rate 0 (Control), 0.01, 0.05, and 0.5 mg/pot. The test compounds were applied on soil or foliar with airbrush (0.1 ml per pot). Each concentration was tested on 20 plants. Two weeks after the treatment the herbicidal effects of the respective test material were visually evaluated (aboveground part and roots. Then the aboveground part of the plants was neatly cut and weighed (wet weight) to assess the growth inhibition caused by the test compound. The growth inhibition (GI) was calculated as following: […]
Where Mt and Mc are median wet weight of treated and control plants, respectively.

[10] = foliar application, 0.05 mg/pot
[11] = foliar application, 0.50 mg/pot

| Molecule | Score (activity score of Minimal Effective Concentration, MEC) [1] | Score (test material causing more than 85% of Growth Inhibition or irreversible plant damage) ([2]; soil application) | Average Herbicidal Effect, Amaranth ([3]; post-emergence) | Average Herbicidal Effect, Amaranth ([3]; pre-emergence) | Average Herbicidal Effect, Chenopodium ([4]; post-emergence) | Average Herbicidal Effect, Chenopodium ([4]; pre-emergence) | Average Herbicidal Effect, Lentils ([5]; pre-emergence) | Average Herbicidal Effect, Silybum ([6]; post-emergence) | Average Herbicidal Effect, Silybum ([6]; pre-emergence) | Average Herbicidal Effect, Sinapis ([7]; post-emergence) | Score (test material causing more than 85% of Growth Inhibition or irreversible plant damage) ([2]; foliar application) | Average Herbicidal Effect, Lentils ([5]; post-emergence) | Average Herbicidal Effect, Sinapis ([7]; pre-emergence) | FEC (Fully Effective Concentration) [8] | Herbicidal effect, growth application (%) [9, 10] | Herbicidal effect, growth application (%) [9, 11] | Herbicidal effect, growth application (%) ([9]; soil application, 0.01 mg/pot) | Herbicidal effect, growth application (%) ([9]; soil application, 0.05 mg/pot) | Herbicidal effect, growth application (%) ([9]; soil application, 0.50 mg/pot) |
| --- | --- | --- | --- | --- | --- | --- | --- | --- | --- | --- | --- | --- | --- | --- | --- | --- | --- | --- | --- |
| 2,2-difluoro-2-[6-(trifluoromethyl)pyridin-2-yl]acetic acid [compound 6651] | Strong (0.01 mM) | moderate (0.5) | 0.5 | 5.0 | 0.5 | 1.5 | 0.0 | 2.0 | 4.0 | 2.0 |  |  |  |  |  |  |  |  |  |
| 2-(2,5-dichloro-1,3-thiazol-4-yl)acetic acid [compound 5637] | Strong (0.01 mM) | strong (0.01 to 0.05) | 3.3 | 1.5 | 2.2 | 1.5 | 0.0 | 1.0 | 0.5 | 0.0 | moderate (0.5) | 1.7 | 3.5 | 0.050 mM |  |  |  |  |  |
| 2-(2-chlorothiophen-3-yl)-2,2-difluoroacetic acid [compound 5623] | Strong (0.01 mM) | strong (0.01 to 0.05) |  |  |  |  |  |  |  |  | strong (0.01 to 0.05) |  |  | 1.000 mM | 91% | 97% | 34% | 79% | 98% |
| NC(Cc1ccsc1Cl)C(=O)O (stereo not drawn) [compound 516] |  |  |  |  |  |  |  |  |  |  |  |  |  |  | 0% | 0% | 0% | 0% | 38% |
| NC(Cc1cc(Cl)sc1Cl)C(=O)O (stereo not drawn) [compound 517] |  |  |  |  |  |  |  |  |  |  |  |  |  |  | 0% | 29% | 0% | 25% | 75% |
| NC(Cc1nc(Cl)sc1Cl)C(=O)O (stereo not drawn) [compound 527] |  |  |  |  |  |  |  |  |  |  |  |  |  |  | 0% | 44% | 0% | 11% | 90% |
| NC(Cc1ccnc(Br)c1)C(=O)O (stereo not drawn) [compound 632] |  |  |  |  |  |  |  |  |  |  |  |  |  |  | 0% | 8% | 0% | 13% | 21% |
| CCOC(=O)C(F)(F)c1cc(Cl)sc1Cl [compound 5643, ethyl(2,5-dichlorothiophen-3-yl)(difluoro)acetate] | Moderate (0.1 mM) |  | 4.0 | 0.5 | 5.0 | 4.0 | 5.0 | 3.0 | 0.0 | 5.0 |  | 4.0 | 5.0 |  |  |  |  |  |  |
| CCOC(=O)Cc1cc(Cl)sc1Cl [compound 5668, ethyl (2,5-dichlorothiophen-3-yl)acetate] |  | strong (0.01 to 0.05) |  | 3.0 |  | 2.0 | 4.0 |  | 5.0 |  |  |  | 5.0 |  |  |  |  |  |  |
| O=C(O)C(F)(F)c1csc(C(F)(F)F)n1 [compound 5679, 2,2-difluoro-2-[2-(trifluoromethyl)-1,3-thiazol-4-yl]acetic acid] | very strong | strong (0.01 to 0.05) | 1.0 | 4.5 | 1.0 | 1.5 | 0.0 | 2.0 | 2.0 | 1.0 | strong (0.01 to 0.05) | 0.5 | 2.0 |  |  |  |  |  |  |
| CCOC(=O)Cc1cccc(Br)n1 [compound 6635, ethyl 2-(6-bromopyridin-2-yl)acetate] | Moderate (0.1 mM) | moderate (0.5) | 4.0 | 4.0 | 3.0 | 0.5 | 0.0 | 2.5 | 3.0 | 2.0 |  | 0.0 | 3.0 |  |  |  |  |  |  |
| OCC(F)(F)c1cccc(Br)n1 [compound 6643, 2-(6-bromopyridin-2-yl)-2,2-difluoroethan-1-ol] | Moderate (0.1 mM) | moderate (0.5) | 1.0 | 0.0 | 4.0 | 3.0 | 0.0 | 2.0 | 2.5 | 4.0 |  | 0.0 | 4.0 |  |  |  |  |  |  |
| ethyl 2-(6-bromopyridin-2-yl)-2,2-difluoroacetate [compound 6640] | Strong (0.01 mM) | moderate (0.5) | 4.0 |  | 1.0 |  |  | 3.0 |  | 3.0 |  | 2.0 |  |  |  |  |  |  |  |

— patent publication US20240284907A1, “NOVEL DERIVATIVES OF NON-CODED AMINO ACIDS AND THEIR USE AS HERBICIDES” (FortePhest LTD., priority 2021, published 2024)
